Laboratory results from patent publication US20140243414A1, “PHARMACEUTICAL COMPOSITIONS OF CETP INHIBITORS” (Japan Tobacco Inc., priority 2003, published 2014).
Read-outs that look alike come from different tables or passages of the source.

Key:
[1] = Plasma pharmacokinetics of the active form of Compound I, single oral doses after standard breakfast, Japanese males (Example 3); format: in vivo, human; conditions: Examples 1-4
Procedure: (§1) Administration, dosing, and sampling schedules were commensurate with those described in Example 1. The tablets were prepared as described in Example 1.

[2] = biological target: T1, CETP (Homo sapiens, UniProt P11597); assay: Relative CETP activity after single oral doses, Japanese males (Example 7); format: in vivo; conditions: for response vs control in vivo at 100 mg: 100 mg with food; for response vs control in vivo at 100 mg / response vs control in vivo at 300 mg / response vs control in vivo at 600 mg / response vs control in vivo at 900 mg / response vs control in vivo at 1200 mg / response vs control in vivo at 1500 mg / response vs control in vivo at 1800 mg: read-out: Percent CETP activity relative to pre-dose; for response vs control in vivo at 300 mg: 300 mg with food; for response vs control in vivo at 600 mg: 600 mg with food; for response vs control in vivo at 900 mg: 900 mg with food; for response vs control in vivo at 1200 mg: 1200 mg with food; for response vs control in vivo at 1500 mg: 1500 mg with food; for response vs control in vivo at 1800 mg: 1800 mg with food
T1 construct: from tissue; host or cells: blood / plasma of human subjects dosed orally with Compound I
T1 sequence (P11597 18-493): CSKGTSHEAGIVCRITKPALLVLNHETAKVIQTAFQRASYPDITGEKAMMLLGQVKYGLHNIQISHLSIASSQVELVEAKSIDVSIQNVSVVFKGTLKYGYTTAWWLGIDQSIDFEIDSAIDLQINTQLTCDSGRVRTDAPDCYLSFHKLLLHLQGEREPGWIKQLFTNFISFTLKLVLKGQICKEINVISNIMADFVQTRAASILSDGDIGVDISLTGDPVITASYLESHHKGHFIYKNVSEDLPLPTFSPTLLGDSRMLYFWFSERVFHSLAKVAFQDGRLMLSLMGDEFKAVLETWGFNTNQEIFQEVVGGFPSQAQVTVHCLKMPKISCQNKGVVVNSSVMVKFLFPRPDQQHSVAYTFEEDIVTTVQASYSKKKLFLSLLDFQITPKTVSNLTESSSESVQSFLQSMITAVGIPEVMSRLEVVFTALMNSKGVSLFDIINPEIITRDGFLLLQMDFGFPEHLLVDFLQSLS
Procedure: as §1
Relative CETP activities (calculated as a percentage of baseline CETP activity) and standard deviations (SD) were measured, and the resulting data is summarized in Table 8.

[3] = biological target: T1, CETP; assay: CETP activity after 4 weeks daily treatment, healthy volunteers (Example 9); format: in vivo; conditions: for Absolute change in CETP activity: 4 weeks treatment, mean ± SD; for Decrease in CETP activity relative to baseline: 4 weeks
Procedure: (§2) Each patient took three tablets after breakfast each day for 4 weeks. Patients either took three placebo tablets (placebo); one 300 mg tablet and two placebo tablets (low dose); two 300 mg tablets and one placebo tablet (medium dose); or three 300 mg tablets (high dose). Tablet preparation was as described as in Example 1.
(§3) The testing period consisted of (a) a run-in period of 4 weeks, followed by (b) 4 weeks of treatment, and (c) 4 weeks of monitoring. Blood samples were drawn after an overnight fast. […] HDL-C was determined with a heparin MnCl2 precipitation reagent and LDL-C was calculated by the Friedewald formula (see, de Grooth et al., supra). CETP activity was measured as described in Example 5.
(§4) Table 11 describes the absolute changes in the assayed properties after 4 weeks of treatment.

[4] = system: TC, HDL-C, LDL-C; assay: Lipid levels after 4 weeks daily treatment, healthy volunteers (Example 9); format: in vivo, human; conditions: for Decrease in TC/HDL-C ratio relative to baseline / Increase in HDL-C levels relative to baseline: 4 weeks; for Absolute change in HDL-C / Absolute change in TC / Absolute change in TC/HDL-C ratio / Absolute change in LDL-C: 4 weeks treatment, mean ± SD; for Absolute change in LDL-C: LDL-C by Friedewald formula
Procedure: as §2, §3, §4

[5] = Solubility in water; format: physicochemical

CCC(CC)CC1(C(=O)Nc2ccccc2SC(=O)C(C)C)CCCCC1 [Compound I, S-[2-([[1-(2-ethylbutyl)cyclohexyl]carbonyl]amino)phenyl]2-methylpropanethioate]
Bioavailability (as indicated by Cmax, AUC0-tz, AUC0-∞) in Oriental (especially Japanese) humans as compared to Caucasian humans [1]: greater
response vs control in vivo at 100 mg ([2]; post-study): 99.2%
response vs control in vivo at 300 mg ([2]; post-study): 96.1%
Decrease in CETP activity relative to pre-dose ([2]; 300 mg, 6 hours after administration): about 19.5%
response vs control in vivo at 600 mg ([2]; post-study): 103%
Decrease in CETP activity relative to pre-dose ([2]; 600 mg, 6 hours after administration): about 62%
response vs control in vivo at 900 mg ([2]; post-study): 95.1%
Decrease in CETP activity relative to pre-dose ([2]; 900 mg, 4 hours after administration): about 76%
response vs control in vivo at 1200 mg ([2]; post-study): 95.2%
response vs control in vivo at 1500 mg ([2]; post-study): 96.9%
response vs control in vivo at 1800 mg ([2]; post-study): 93%
response vs control in vivo at 100 mg ([2]; 1 h, 1 h): 96.2%
response vs control in vivo at 300 mg ([2]; 1 h, 1 h): 100%
response vs control in vivo at 600 mg ([2]; 1 h, 1 h): 100%
response vs control in vivo at 900 mg ([2]; 1 h, 1 h): 100%
response vs control in vivo at 1200 mg ([2]; 1 h, 1 h): 94.2%
response vs control in vivo at 1500 mg ([2]; 1 h, 1 h): 101%
response vs control in vivo at 1800 mg ([2]; 1 h, 1 h): 85.3%
response vs control in vivo at 100 mg ([2]; 2 h, 2 h): 92%
response vs control in vivo at 300 mg ([2]; 2 h, 2 h): 90.7%
response vs control in vivo at 600 mg ([2]; 2 h, 2 h): 87.8%
response vs control in vivo at 900 mg ([2]; 2 h, 2 h): 52.1%
response vs control in vivo at 1200 mg ([2]; 2 h, 2 h): 54%
response vs control in vivo at 1500 mg ([2]; 2 h, 2 h): 85.7%
response vs control in vivo at 1800 mg ([2]; 2 h, 2 h): 15.6%
response vs control in vivo at 100 mg ([2]; 4 h, 4 h): 93.2%
response vs control in vivo at 300 mg ([2]; 4 h, 4 h): 83.1%
response vs control in vivo at 600 mg ([2]; 4 h, 4 h): 52.6%
response vs control in vivo at 900 mg ([2]; 4 h, 4 h): ~24%
response vs control in vivo at 1200 mg ([2]; 4 h, 4 h): 12.1%
response vs control in vivo at 1500 mg ([2]; 4 h, 4 h): 13.3%
response vs control in vivo at 1800 mg ([2]; 4 h, 4 h): 6%
response vs control in vivo at 100 mg ([2]; 6 h, 6 h): 90.4%
response vs control in vivo at 300 mg ([2]; 6 h, 6 h): ~80.5%
response vs control in vivo at 600 mg ([2]; 6 h, 6 h): ~38%
response vs control in vivo at 900 mg ([2]; 6 h, 6 h): 24.1%
response vs control in vivo at 1200 mg ([2]; 6 h, 6 h): 10.5%
response vs control in vivo at 1500 mg ([2]; 6 h, 6 h): 10.6%
response vs control in vivo at 1800 mg ([2]; 6 h, 6 h): 8.4%
response vs control in vivo at 100 mg ([2]; 8 h, 8 h): 90.4%
response vs control in vivo at 300 mg ([2]; 8 h, 8 h): 80.6%
response vs control in vivo at 600 mg ([2]; 8 h, 8 h): 39.1%
response vs control in vivo at 900 mg ([2]; 8 h, 8 h): 29.8%
response vs control in vivo at 1200 mg ([2]; 8 h, 8 h): 14.7%
response vs control in vivo at 1500 mg ([2]; 8 h, 8 h): 15.4%
response vs control in vivo at 1800 mg ([2]; 8 h, 8 h): 12.2%
response vs control in vivo at 100 mg ([2]; 24 h, 24 h): 99.2%
response vs control in vivo at 300 mg ([2]; 24 h, 24 h): 88.8%
response vs control in vivo at 600 mg ([2]; 24 h, 24 h): 65.5%
response vs control in vivo at 900 mg ([2]; 24 h, 24 h): 60.5%
response vs control in vivo at 1200 mg ([2]; 24 h, 24 h): 47.6%
response vs control in vivo at 1500 mg ([2]; 24 h, 24 h): 53.7%
response vs control in vivo at 1800 mg ([2]; 24 h, 24 h): 49.5%
Absolute change in CETP activity ([3]; 300 mg per day after breakfast): −15.4 ± 11.9 % of control
Decrease in CETP activity relative to baseline ([3]; 300 mg per day with food): about 17%
Absolute change in CETP activity ([3]; 600 mg per day after breakfast): −29.6 ± 19.5 % of control
Decrease in CETP activity relative to baseline ([3]; 600 mg per day with food): about 33%
Absolute change in CETP activity ([3]; 900 mg per day after breakfast): −37.2 ± 17.6 % of control
Decrease in CETP activity relative to baseline ([3]; 900 mg per day with food): about 39%
Decrease in TC/HDL-C ratio relative to baseline ([4]; 300 mg per day): about 13%
Increase in HDL-C levels relative to baseline ([4]; 300 mg per day): about 15%
Absolute change in HDL-C ([4]; 300 mg per day): 0.18 ± 0.15 mmol/L
Absolute change in TC ([4]; 300 mg per day): −0.1 ± 0.5^ mmol/L
Absolute change in TC/HDL-C ratio ([4]; 300 mg per day): −0.7 ± 0.8
Absolute change in LDL-C ([4]; 300 mg per day): −0.2 ± 0.5^ mmol/L
Decrease in TC/HDL-C ratio relative to baseline ([4]; 600 mg per day): about 18%
Increase in HDL-C levels relative to baseline ([4]; 600 mg per day): about 26%
Absolute change in HDL-C ([4]; 600 mg per day): 0.32 ± 0.22 mmol/L
Absolute change in TC ([4]; 600 mg per day): 0.0 ± 0.6 mmol/L
Absolute change in TC/HDL-C ratio ([4]; 600 mg per day): −0.9 ± 0.8
Absolute change in LDL-C ([4]; 600 mg per day): −0.2 ± 0.6^ mmol/L
Decrease in TC/HDL-C ratio relative to baseline ([4]; 900 mg per day): about 23%
Increase in HDL-C levels relative to baseline ([4]; 900 mg per day): about 34%
Absolute change in HDL-C ([4]; 900 mg per day): 0.40 ± 0.29 mmol/L
Absolute change in TC ([4]; 900 mg per day): 0.0 ± 0.6 mmol/L
Absolute change in TC/HDL-C ratio ([4]; 900 mg per day): −1.2 ± 0.7
Absolute change in LDL-C ([4]; 900 mg per day): -0.3 ± 0.6 mmol/L
solubility [5]: < 0.1 µg/mL
